Test results reported in US20150239889A1, “PYRAZOLOPYRIMIDINE COMPOUND” (MITSUBISHI TANABE PHARMA CORPORATION, priority 2012, published 2015).

What was measured:
human HIF-PHD2 = target: T1, human HIF-PHD2 (Homo sapiens, UniProt Q9GZT9); assay: HIF-PHD inhibition assay (fluorescence polarization), human HIF-PHD2; type: biochemical; conditions: 2-oxoglutaric acid 3.33 μmol/L
T1 construct: purchased CrystalGenomics Ltd
Method: (§1) The activity of the test compound to inhibit human HIF-PHD2 and human HIF-PHD3 was determined.
(§2) The value of enzyme activity was calculated by subtracting the value of fluorescence polarization before addition of the enzyme from the value of fluorescence polarization after addition of enzyme (mP value).
(§3) FAM: 5′-fluoresceinamide ACA: aminocaproic acid

human HIF-PHD3 = target: T2, human HIF-PHD3 (Homo sapiens, UniProt Q9H6Z9); assay: HIF-PHD inhibition assay (fluorescence polarization), human HIF-PHD3; type: biochemical; conditions: 2-oxoglutaric acid 166 μmol/L
T2 construct: purchased CrystalGenomics Ltd
Method: as §1, §2, §3

T2 sequence (Q9H6Z9 whole entry): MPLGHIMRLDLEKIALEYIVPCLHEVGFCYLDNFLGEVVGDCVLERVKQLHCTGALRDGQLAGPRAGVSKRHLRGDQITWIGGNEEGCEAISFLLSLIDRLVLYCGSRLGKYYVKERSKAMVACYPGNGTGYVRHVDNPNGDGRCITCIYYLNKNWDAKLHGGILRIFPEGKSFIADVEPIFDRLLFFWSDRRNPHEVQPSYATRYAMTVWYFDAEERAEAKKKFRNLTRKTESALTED
T1 sequence (Q9GZT9 2-426 limits assumed): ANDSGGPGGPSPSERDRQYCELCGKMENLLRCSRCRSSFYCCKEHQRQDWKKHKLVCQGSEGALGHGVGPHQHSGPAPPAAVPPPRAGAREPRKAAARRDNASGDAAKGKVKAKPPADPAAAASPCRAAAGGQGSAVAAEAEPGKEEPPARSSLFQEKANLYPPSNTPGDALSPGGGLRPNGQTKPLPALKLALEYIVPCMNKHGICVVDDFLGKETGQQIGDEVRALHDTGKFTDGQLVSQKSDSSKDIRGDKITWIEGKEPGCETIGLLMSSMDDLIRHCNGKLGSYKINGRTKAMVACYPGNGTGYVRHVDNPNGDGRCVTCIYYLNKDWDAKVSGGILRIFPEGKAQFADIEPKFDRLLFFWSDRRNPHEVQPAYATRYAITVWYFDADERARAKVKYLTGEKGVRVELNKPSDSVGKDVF

## Cc1ccc(C(C)n2ncc3nc(-n4cc(C(=O)O)cn4)nc(O)c32)cc1F (stereo not shown) [Example 295]
Human HIF-PHD2
  IC50: 64 nM
Human HIF-PHD3
  IC50: 700 nM

## C[C@@H](c1cc(Cl)ccc1F)n1ncc2nc(-n3cc(C(=O)O)cn3)nc(O)c21 [Example 282]
Human HIF-PHD2
  IC50: 77 nM
Human HIF-PHD3
  IC50: 1400 nM

## Cc1ccc(F)c(C(C)n2ncc3nc(-n4cc(C(=O)O)cn4)nc(O)c32)c1 (single isomer, unassigned) [Example 314]
Human HIF-PHD2
  IC50: 61 nM
Human HIF-PHD3
  IC50: 800 nM

## C[C@@H](C1CCC(C)(C)CC1)n1ncc2nc(-n3cc(C(=O)O)cn3)nc(O)c21 [Example 382]
Human HIF-PHD2
  IC50: 15 nM
Human HIF-PHD3
  IC50: 410 nM

## Cc1nn([C@@H](C)c2ccc(F)cc2Cl)c2c(O)nc(-n3cc(C(=O)O)cn3)nc12 [Example 452]
Human HIF-PHD2
  IC50: 110 nM
Human HIF-PHD3
  IC50: 1600 nM

## CCC(c1cc(F)cc(Cl)c1)n1ncc2nc(-n3cc(C(=O)O)cn3)nc(O)c21 (stereo not shown) [Example 339]
Human HIF-PHD2
  IC50: 36 nM
Human HIF-PHD3
  IC50: 370 nM

## CC(C)C(c1cccc(C(F)(F)F)c1)n1ncc2nc(-n3cc(C(=O)O)cn3)nc(O)c21 (stereo not shown) [Example 362]
Human HIF-PHD2
  IC50: 100 nM
Human HIF-PHD3
  IC50: 1500 nM

## C[C@@H](c1ccc(F)cc1)n1nc(C2CC2)c2nc(-n3cc(C(=O)O)cn3)nc(O)c21 [Example 457]
Human HIF-PHD2
  IC50: 110 nM
Human HIF-PHD3
  IC50: 710 nM

## Cc1cccc([C@H](C)n2ncc3nc(-n4cc(C(=O)O)cn4)nc(O)c32)c1 [Example 262]
Human HIF-PHD2
  IC50: 29 nM
Human HIF-PHD3
  IC50: 360 nM

## O=C(O)c1cnn(-c2nc(O)c3c(cnn3Cc3ccc(-c4ccc(C(F)(F)F)cc4Cl)cc3)n2)c1 [Example 73]
Human HIF-PHD2
  IC50: 31 nM
Human HIF-PHD3
  IC50: 270 nM

## CC(c1ccc(N2CCC(F)CC2)cc1)n1ncc2nc(-n3cc(C(=O)O)cn3)nc(O)c21 (racemic) [Example 424]
Human HIF-PHD2
  IC50: 44 nM
Human HIF-PHD3
  IC50: 480 nM

## Cc1cc(C(C)n2ncc3nc(-n4cc(C(=O)O)cn4)nc(O)c32)ccc1F (single isomer, unassigned) [Example 302]
Human HIF-PHD2
  IC50: 50 nM
Human HIF-PHD3
  IC50: 570 nM

## Cc1ccc([C@H](C)n2ncc3nc(-n4cc(C(=O)O)cn4)nc(O)c32)cc1C(F)(F)F [Example 278]
Human HIF-PHD2
  IC50: 120 nM
Human HIF-PHD3
  IC50: 420 nM

## CCC(c1cc(C(F)(F)F)cc(C(F)(F)F)c1)n1ncc2nc(-n3cc(C(=O)O)cn3)nc(O)c21 (stereo not shown) [Example 334]
Human HIF-PHD2
  IC50: 260 nM
Human HIF-PHD3
  IC50: 2500 nM

## O=C(O)c1cnn(-c2nc(O)c3c(cnn3C3CCC(F)(F)CC3)n2)c1 [Example 392]
Human HIF-PHD2
  IC50: 42 nM
Human HIF-PHD3
  IC50: 1300 nM

## O=C(O)c1cnn(-c2nc(O)c3c(cnn3C(c3ccc(F)c(Cl)c3)C3CC3)n2)c1 (single isomer, unassigned) [Example 371]
Human HIF-PHD2
  IC50: 41 nM
Human HIF-PHD3
  IC50: 400 nM

## C[C@@H](c1ccc(C(F)(F)F)c(F)c1)n1ncc2nc(-n3cc(C(=O)O)cn3)nc(O)c21 [Example 281]
Human HIF-PHD2
  IC50: 20 nM
Human HIF-PHD3
  IC50: 450 nM

## O=C(O)c1cnn(-c2nc(O)c3c(cnn3C3Cc4ccccc4C3)n2)c1 [Example 395]
Human HIF-PHD2
  IC50: 64 nM
Human HIF-PHD3
  IC50: 430 nM

## CC1(C)CCCC(n2ncc3nc(-n4cc(C(=O)O)cn4)nc(O)c32)C1 (stereo not shown) [Example 411]
Human HIF-PHD2
  IC50: 40 nM
Human HIF-PHD3
  IC50: 550 nM

## C[C@@H](C1CCN(c2ccc(OC(F)(F)F)cc2)CC1)n1ncc2nc(-n3cc(C(=O)O)cn3)nc(O)c21 [Example 433]
Human HIF-PHD2
  IC50: 31 nM
Human HIF-PHD3
  IC50: 540 nM

## Cc1cc(Cl)ccc1-c1ccc(Cn2ncc3nc(-n4cc(C(=O)O)cn4)nc(O)c32)cc1 [Example 71]
Human HIF-PHD2
  IC50: 16 nM
Human HIF-PHD3
  IC50: 110 nM

## Cc1nn([C@H]2CC[C@H](C)CC2)c2c(O)nc(-n3cc(C(=O)O)cn3)nc12 [Example 483]
Human HIF-PHD2
  IC50: 110 nM
Human HIF-PHD3
  IC50: 1200 nM

## Cc1ccc([C@H](C)n2ncc3nc(-n4cc(C(=O)O)cn4)nc(O)c32)cc1C [Example 259]
Human HIF-PHD2
  IC50: 44 nM
Human HIF-PHD3
  IC50: 690 nM

## CC(c1ccc(F)c(C(F)(F)F)c1)n1ncc2nc(-n3cc(C(=O)O)cn3)nc(O)c21 (single isomer, unassigned) [Example 304]
Human HIF-PHD2
  IC50: 15 nM
Human HIF-PHD3
  IC50: 230 nM

## Cc1ccc2cc(Cn3ncc4nc(-n5cc(C(=O)O)cn5)nc(O)c43)ccc2c1 [Example 33]
Human HIF-PHD2
  IC50: 10 nM
Human HIF-PHD3
  IC50: 200 nM

## O=C(O)c1cnn(-c2nc(O)c3c(cnn3CCCOc3ccc(C4CCCCC4)cc3)n2)c1 [Example 185]
Human HIF-PHD2
  IC50: 15 nM
Human HIF-PHD3
  IC50: 330 nM

## C[C@@H](c1ccc(OC(F)(F)F)c(Cl)c1)n1ncc2nc(-n3cc(C(=O)O)cn3)nc(O)c21 [Example 318]
Human HIF-PHD2
  IC50: 16 nM
Human HIF-PHD3
  IC50: 290 nM

## CCC(CC)n1ncc2nc(-n3cc(C(=O)O)cn3)nc(O)c21 [Example 487]
Human HIF-PHD2
  IC50: 81 nM
Human HIF-PHD3
  IC50: 530 nM

## Cc1nn([C@@H](C)c2ccc(F)cc2)c2c(O)nc(-n3cc(C(=O)O)cn3)nc12 [Example 448]
Human HIF-PHD2
  IC50: 62 nM
Human HIF-PHD3
  IC50: 1900 nM

## O=C(O)c1cnn(-c2nc(O)c3c(cnn3[C@H]3CCN(c4ccc(Cl)c(Cl)c4)C3)n2)c1 [Example 438]
Human HIF-PHD2
  IC50: 13 nM
Human HIF-PHD3
  IC50: 140 nM

## O=C(O)c1cnn(-c2nc(O)c3c(cnn3C[C@H]3CCN(c4cccc(C(F)(F)F)c4)C3)n2)c1 [Example 429]
Human HIF-PHD2
  IC50: 22 nM
Human HIF-PHD3
  IC50: 540 nM

## Cn1nc(-c2ccccc2)c2nc(-n3cc(C(=O)O)cn3)nc(O)c21 [Example 502]
Human HIF-PHD2
  IC50: > 300 nM
Human HIF-PHD3
  IC50: 1200 nM

## C[C@@H](C1CCN(c2ccc(C(F)(F)F)cc2)CC1)n1ncc2nc(-n3cc(C(=O)O)cn3)nc(O)c21 [Example 431]
Human HIF-PHD2
  IC50: 17 nM
Human HIF-PHD3
  IC50: 280 nM

## O=C(O)c1cnn(-c2nc(O)c3c(cnn3CC(F)(F)c3ccc(Cl)cc3)n2)c1 [Example 125]
Human HIF-PHD2
  IC50: 110 nM
Human HIF-PHD3
  IC50: 910 nM

## O=C(O)c1cnn(-c2nc(O)c3c(cnn3C(c3cc(F)cc(F)c3)C3CC3)n2)c1 (single isomer, unassigned) [Example 373]
Human HIF-PHD2
  IC50: 36 nM
Human HIF-PHD3
  IC50: 650 nM

## Cc1cc(C(C)n2ncc3nc(-n4cc(C(=O)O)cn4)nc(O)c32)ccc1Cl (single isomer, unassigned) [Example 294]
Human HIF-PHD2
  IC50: 22 nM
Human HIF-PHD3
  IC50: 470 nM

## O=C(O)c1cnn(-c2nc(O)c3c(cnn3C(c3cccc(Cl)c3)C3CC3)n2)c1 (single isomer, unassigned) [Example 375]
Human HIF-PHD2
  IC50: 52 nM
Human HIF-PHD3
  IC50: 500 nM

## CC1CCCC(n2ncc3nc(-n4cc(C(=O)O)cn4)nc(O)c32)C1 (stereo not shown) [Example 398]
Human HIF-PHD2
  IC50: 52 nM
Human HIF-PHD3
  IC50: 1400 nM

## CC[C@@H](c1ccc(C)c(F)c1)n1ncc2nc(-n3cc(C(=O)O)cn3)nc(O)c21 [Example 345]
Human HIF-PHD2
  IC50: 53 nM
Human HIF-PHD3
  IC50: 830 nM

## O=C(O)c1cnn(-c2nc(O)c3c(cnn3CCCOc3ccc4c(c3)CCC4)n2)c1 [Example 195]
Human HIF-PHD2
  IC50: 22 nM
Human HIF-PHD3
  IC50: 460 nM

## Cc1ccc(C(C)n2ncc3nc(-n4cc(C(=O)O)cn4)nc(O)c32)cc1 (stereo not shown) [Example 291]
Human HIF-PHD2
  IC50: 72 nM
Human HIF-PHD3
  IC50: 730 nM

## CC(C)C(c1ccc(F)cc1)n1ncc2nc(-n3cc(C(=O)O)cn3)nc(O)c21 (single isomer, unassigned) [Example 355]
Human HIF-PHD2
  IC50: 120 nM
Human HIF-PHD3
  IC50: 540 nM

## CCC1CCCC(n2ncc3nc(-n4cc(C(=O)O)cn4)nc(O)c32)C1 (single isomer, unassigned) [Example 416]
Human HIF-PHD2
  IC50: 18 nM
Human HIF-PHD3
  IC50: 530 nM

## Cc1cc(C(C)n2ncc3nc(-n4cc(C(=O)O)cn4)nc(O)c32)ccc1Cl (stereo not shown) [Example 293]
Human HIF-PHD2
  IC50: 61 nM
Human HIF-PHD3
  IC50: 510 nM

## CC(c1cc(Cl)c(Cl)s1)n1ncc2nc(-n3cc(C(=O)O)cn3)nc(O)c21 (stereo not shown) [Example 319]
Human HIF-PHD2
  IC50: 85 nM
Human HIF-PHD3
  IC50: 520 nM

## Cc1cc(F)cc(C(C)n2ncc3nc(-n4cc(C(=O)O)cn4)nc(O)c32)c1 (stereo not shown) [Example 299]
Human HIF-PHD2
  IC50: 79 nM
Human HIF-PHD3
  IC50: 700 nM

## CCC(c1ccc(F)c(F)c1)n1ncc2nc(-n3cc(C(=O)O)cn3)nc(O)c21 (stereo not shown) [Example 330]
Human HIF-PHD2
  IC50: 36 nM
Human HIF-PHD3
  IC50: 580 nM

## CC[C@H]1CC[C@H](Cn2nc(F)c3nc(-n4cc(C(=O)O)cn4)nc(O)c32)CC1 [Example 219]
Human HIF-PHD2
  IC50: 11 nM
Human HIF-PHD3
  IC50: 1400 nM

## CCc1nn(CC2CCCCC2)c2c(O)nc(-n3cc(C(=O)O)cn3)nc12 [Example 232]
Human HIF-PHD2
  IC50: 150 nM
Human HIF-PHD3
  IC50: 1400 nM

## Cc1ccc([C@H](C)n2nc(F)c3nc(-n4cc(C(=O)O)cn4)nc(O)c32)cc1C [Example 441]
Human HIF-PHD2
  IC50: 60 nM
Human HIF-PHD3
  IC50: 430 nM

## C[C@H](C1CCCCC1)n1nc(F)c2nc(-n3cc(C(=O)O)cn3)nc(O)c21 [Example 469]
Human HIF-PHD2
  IC50: 76 nM
Human HIF-PHD3
  IC50: 1200 nM

## O=C(O)c1cnn(-c2nc(O)c3c(cnn3Cc3ccc(C4CC4)cc3)n2)c1 [Example 321]
Human HIF-PHD2
  IC50: 11 nM
Human HIF-PHD3
  IC50: 190 nM

## CC(C)(C)Cn1ncc2nc(-n3cc(C(=O)O)cn3)nc(O)c21 [Example 491]
Human HIF-PHD2
  IC50: 99 nM
Human HIF-PHD3
  IC50: 630 nM
